pKi: −log10 of the molar value.
What was measured:
Sphingosine kinase 2 = target: T1, Sphingosine kinase 2 (Mus musculus, UniProt Q9JIA7); experiment: Inhibition of mouse recombinant SPHK2 expressed in baculovirus-infected Sf9 cells
T1 sequence (Q9JIA7 whole entry): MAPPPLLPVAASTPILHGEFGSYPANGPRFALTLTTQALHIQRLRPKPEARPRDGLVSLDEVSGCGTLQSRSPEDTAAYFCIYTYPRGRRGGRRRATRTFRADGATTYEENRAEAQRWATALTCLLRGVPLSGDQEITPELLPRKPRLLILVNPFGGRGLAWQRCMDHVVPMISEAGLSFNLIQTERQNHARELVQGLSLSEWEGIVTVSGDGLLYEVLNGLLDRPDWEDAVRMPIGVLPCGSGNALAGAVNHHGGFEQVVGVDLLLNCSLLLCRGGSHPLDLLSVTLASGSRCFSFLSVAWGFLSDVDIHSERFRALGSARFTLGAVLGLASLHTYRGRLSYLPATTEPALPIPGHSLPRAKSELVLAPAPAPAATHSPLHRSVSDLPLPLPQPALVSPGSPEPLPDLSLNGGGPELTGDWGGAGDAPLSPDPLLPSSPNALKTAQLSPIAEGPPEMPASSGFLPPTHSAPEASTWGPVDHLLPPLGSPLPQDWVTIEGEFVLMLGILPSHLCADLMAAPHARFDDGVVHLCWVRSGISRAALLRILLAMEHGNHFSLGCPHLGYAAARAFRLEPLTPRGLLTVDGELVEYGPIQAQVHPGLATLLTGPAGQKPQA

Sphingosine kinase 1 [1] = target: T2, Sphingosine kinase 1 (Homo sapiens, UniProt Q9NYA1); experiment: biochemical
Description: (§1) Inhibition of human recombinant SPHK1 expressed in baculovirus-infected Sf9 cells

Sphingosine kinase 1 [2] = target: T2, Sphingosine kinase 1
Description: as §1

[3] = target: Sphingosine kinase 2 (Mus musculus) (UniProt Q9JIA7); experiment: Inhibition of SPHK2

T2 sequence (Q9NYA1 whole entry): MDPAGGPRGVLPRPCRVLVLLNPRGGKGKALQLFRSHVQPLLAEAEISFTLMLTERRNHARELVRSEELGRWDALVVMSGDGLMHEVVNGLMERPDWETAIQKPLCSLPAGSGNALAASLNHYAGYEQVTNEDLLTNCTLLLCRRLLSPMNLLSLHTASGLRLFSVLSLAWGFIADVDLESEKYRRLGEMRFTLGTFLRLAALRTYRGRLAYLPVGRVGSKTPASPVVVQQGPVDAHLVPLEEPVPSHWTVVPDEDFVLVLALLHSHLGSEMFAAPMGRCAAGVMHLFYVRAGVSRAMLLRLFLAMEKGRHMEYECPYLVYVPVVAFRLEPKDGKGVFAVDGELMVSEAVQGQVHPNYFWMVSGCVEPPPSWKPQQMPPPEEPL

| Compound | pKi (Sphingosine kinase 2) | pKi (Sphingosine kinase 1 [1]) | pKi (Sphingosine kinase 1 [2]) | pKi [3] |
| --- | --- | --- | --- | --- |
| Oc1ccc(Nc2nc(-c3ccc(Cl)cc3)cs2)cc1 | 4.48 |  |  |  |
| CCCCCCCCCCCCCCNC(=O)C1(C(=N)N)CC1 | 5.12 | 5.22 |  |  |
| CCCCCCCCCCCCCCCCNC(=O)C1(C(=N)N)CC1 | < 4.00 | 5.27 |  |  |
| CCCCCCCCCCCCCCCCCCNC(=O)C1(C(=N)N)CC1 | < 4.00 | 5.05 |  |  |
| N=C(N)C1(C(=O)Nc2ccc(CCCCCCOCC3CCCCC3)cc2)CC1 | 4.92 | 6.41 |  |  |
| N=C(N)C1(C(=O)Nc2ccc(CCCCCCCCOCC3CCCCC3)cc2)CC1 | < 4.70 | 6.10 |  |  |
| N=C(N)C1(C(=O)NCCCCCCCCCCOCC2CCCCC2)CC1 | 4.59 |  | 6.96 |  |
| N=C(N)C1(NC(=O)c2ccc(CCCCCCCOCC3CCCCC3)cc2)CC1 | 4.82 | 6.89 |  |  |
| N=C(N)C1(NC(=O)c2ccc(CCCCCCCOCC3CCCC3)cc2)CC1 | 4.74 | 6.77 |  |  |
| CCCCOCCCCCCCc1ccc(C(=O)NC2(C(=N)N)CC2)cc1 | 4.40 | 5.89 |  |  |
| CCCCCCCCCCCOc1ccc(C(=O)NC2(C(=N)N)CC2)cc1 | 5.00 | 5.40 |  |  |
| CCCCCCCCCCCCc1ccc(C(=O)NC2(C(=N)N)CCC2)cc1 | 5.30 | 5.80 |  |  |
| N=C(N)[C@@H]1CCCN1C(=O)c1ccc(CCCCCCCCCC2CCCCC2)cc1 | 5.28 | 7.00 |  |  |
| N=C(N)[C@@H]1CCCN1C(=O)c1ccc(-c2nc(-c3cccc(CCC4CCCCC4)c3)c[nH]2)cc1 | 4.70 | 5.70 |  |  |
| N=C(N)[C@@H]1CCCN1C(=O)c1ccc(-c2nc(-c3cccc(CCC4CCCCC4)c3)co2)cc1 | 5.38 |  | 7.33 |  |
| CCCCCCCCc1ccc(NC(=O)[C@@H](N)CCO)cc1 | 4.51 |  |  | 4.51 |

More lines, now with the values ahead:

| pKi (Sphingosine kinase 2) | pKi (Sphingosine kinase 1 [1]) | pKi (Sphingosine kinase 1 [2]) | pKi [3] | Compound |
| --- | --- | --- | --- | --- |
| 4.42 | 5.30 |  |  | N=C(N)C1(C(=O)Nc2ccc(CCCCCCCOCc3ccccc3)cc2)CC1 |
| < 5.00 | 6.30 |  |  | N=C(N)C1(C(=O)Nc2ccc(CCCCCCCCCc3ccccc3)cc2)CC1 |
| < 5.00 | 5.89 |  |  | N=C(N)C1(C(=O)Nc2ccc(CCCCCCCCc3ccccc3)cc2)CC1 |
| 5.15 | 6.62 |  |  | N=C(N)C1(C(=O)Nc2ccc(CCCCCCCOCC3CCCCC3)cc2)CC1 |
| 5.34 | 5.82 |  |  | N=C(N)C1(C(=O)Nc2ccc(CCCCCCCOCC34CC5CC(CC(C5)C3)C4)cc2)CC1 |
| 4.60 | 6.35 |  |  | N=C(N)C1(C(=O)NCCCCCCCCCCOCC2CCCC2)CC1 |
| 4.92 | 7.02 |  |  | N=C(N)C1(NC(=O)CCCCCCCCCCOCC2CCCCC2)CC1 |
| 5.52 |  | 7.12 |  | N=C(N)[C@@H]1CCCN1C(=O)c1ccc(CCCCCCCOCC2CCCCC2)cc1 |
| 5.10 | 6.89 |  |  | N=C(N)[C@@H]1CCCN1C(=O)CCCCCCCCCCOCC1CCCCC1 |
| 5.22 | 6.96 |  |  | N=C(N)[C@@H]1CCCN1C(=O)c1ccc(-c2nc(-c3cccc(CCC4CCCCC4)c3)cs2)cc1 |
